Test results published in US5521155A, “Amides of teicoplanin compounds” (Gruppo Lepetit S.p.A, priority 1985, dated 1996).
≈ marks a conversion by molar mass, not a printed value.

Columns and labels:
S. pyogenes L 49 = test: In vivo test in mice experimentally infected with S. pyogenes L 49 (ED50); conditions: mice infected with S. pyogenes L 49; for ED50, route of administration os.: oral
[1] = Isoelectric point (pI) by isoelectrofocusing with bioautography detection; type: physicochemical; conditions: IEF technique, polyacrylamide gel
Procedure, shortened: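 Polyacrylamide gel IEF (8% T, 4% C, 2% ampholytes) at 4 °C, with samples of 0.2–2.5 μg antibiotic focused at 10 W constant power for 3–3.5 h. pI was interpolated from a plot of gel-section pH (eluted in 10 mM KCl) against distance from the anode. Spots were located by bioautography on agar seeded with Bacillus subtilis ATCC 6633, incubated overnight at 37 °C.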

Acid-base titration (pK) = type: physicochemical; conditions: for pK1 / pK2: acid-base titration in METHYLCELLOSOLVE/H2O 4:1 (v/v), 0.01N KOH, salt form per Table IV
Procedure: The following table (Table IV) reports the acid-base titration data of some representative compounds of the invention. The assays were carried out in METHYLCELLOSOLVE/H2 O, 4:1(v/v). A sample is dissolved in METHYLCELLOSOLVE/H2 O, 4:1(v/v) (10 umole in about 20 ml) and then 0.01N HCl (2 ml) is added and the mixture is titrated with 0.01N KOH in the same solvent mixture.

S. faecalis ATCC 7080 = test: In vitro antibacterial activity, standard agar-dilution test (MIC); type: cell-based; conditions: inoculum about 10^4 CFU/ml, 18-24 h at 37° C.
Procedure, shortened: (§1)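 Growth media: Iso-Sensitest broth (staphylococci); Todd broth (streptococci). Final inoculum approx. 10^4 CFU/ml.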

E. coli SKF 12140 = test: as above; type: cell-based; conditions: inoculum about 10^4 CFU/ml, 18-24 h at 37° C.
Procedure, shortened: (§2)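 Agar-dilution MIC with a final inoculum of about 10^4 CFU/ml, prepared from broth cultures.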

S. pyogenes C 203 = test: as above; type: cell-based; conditions: inoculum about 10^4 CFU/ml, 18-24 h at 37° C.
Procedure, shortened: as §1

S. aureus ATCC 6538 = test: as above; type: cell-based; conditions: inoculum about 10^4 CFU/ml, 18-24 h at 37° C.
Procedure, shortened: as §2

[2] = test system: S. epidermidis ATCC 12228; test: as above; type: cell-based; conditions: inoculum about 10^4 CFU/ml, 18-24 h at 37° C.
Procedure, shortened: as §2

S. aureus Tour = test: as above; type: cell-based; conditions: inoculum about 10^4 CFU/ml, 18-24 h at 37° C.
Procedure, shortened: as §2

S. pneumoniae UC 41 = test: as above; type: cell-based; conditions: inoculum about 10^4 CFU/ml, 18-24 h at 37° C.
Procedure, shortened: as §2

[3] = test system: Proteus vulgaris X 19H ATCC 881; test: as above; type: cell-based; conditions: inoculum about 10^4 CFU/ml, 18-24 h at 37° C.
Procedure, shortened: as §2

[4] = test system: Pseudomonas aeruginosa ATCC 10145; test: as above; type: cell-based; conditions: inoculum about 10^4 CFU/ml, 18-24 h at 37° C.
Procedure, shortened: as §2

Structure (SMILES)	ED50, route of administration os. (S. pyogenes L 49)	ED50, route of administration s.c (S. pyogenes L 49)	Isoelectric point (pI) [1]	pK1 (Acid-base titration (pK))	pK2 (Acid-base titration (pK))	MIC S. faecalis ATCC 7080 (S. faecalis ATCC 7080)	MIC E. coli SKF 12140 (E. coli SKF 12140)	MIC S. pyogenes C 203 (S. pyogenes C 203)	MIC S. aureus ATCC 6538 (S. aureus ATCC 6538)	MIC S. epidermidis ATCC 12228 [2]	MIC S. aureus Tour (S. aureus Tour)	MIC S. pneumoniae UC 41 (S. pneumoniae UC 41)	MIC Proteus vulgaris X 19H ATCC 881 [3]	MIC Pseudomonas aeruginosa ATCC 10145 [4]	pK3 (value between brackets) (Acid-base titration (pK); between brackets: due to titration of the carboxylic function of the salifying acid)
CN1CCN(C(=O)C2NC(=O)C3NC(=O)C(NC(=O)C4NC(=O)C5NC(=O)C(Cc6ccc(c(Cl)c6)Oc6cc4cc(c6O)Oc4ccc(cc4Cl)C3O)NC(=O)C(N)c3ccc(O)c(c3)Oc3cc(O)cc5c3)c3ccc(O)c(c3)-c3c(O)cc(O)cc32)CC1 (centres unmarked) [Compound 23]	> 300 mg/kg	0.95 mg/kg	8.0	5.6	6.8	0.12 µg/mL (≈ 0.0937 µM)	16 µg/mL (≈ 12.5 µM)	0.12 µg/mL (≈ 0.0937 µM)	0.06 µg/mL (≈ 0.0468 µM)	0.032 µg/mL (≈ 0.025 µM)	0.12 µg/mL (≈ 0.0937 µM)	0.12 µg/mL (≈ 0.0937 µM)	64 µg/mL (≈ 50 µM)	32 µg/mL (≈ 25 µM)	–
CCN(CC)CCCNC(=O)C1NC(=O)C2NC(=O)C(NC(=O)C3NC(=O)C4NC(=O)C(Cc5ccc(c(Cl)c5)Oc5cc3cc(c5O)Oc3ccc(cc3Cl)C2O)NC(=O)C(N)c2ccc(O)c(c2)Oc2cc(O)cc4c2)c2ccc(O)c(c2)-c2c(O)cc(O)cc21 (centres unmarked) [Compound 19]	> 300 mg/kg	0.18 mg/kg	8.7	6.30	8.0	0.12 µg/mL (≈ 0.0915 µM)	8 µg/mL (≈ 6.1 µM)	0.06 µg/mL (≈ 0.0458 µM)	0.12 µg/mL (≈ 0.0915 µM)	0.032 µg/mL (≈ 0.0244 µM)	0.12 µg/mL (≈ 0.0915 µM)	0.12 µg/mL (≈ 0.0915 µM)	32 µg/mL (≈ 24.4 µM)	32 µg/mL (≈ 24.4 µM)	–
CCCCN(CCCC)CCCNC(=O)C1NC(=O)C2NC(=O)C(NC(=O)C3NC(=O)C4NC(=O)C(Cc5ccc(c(Cl)c5)Oc5cc3cc(c5O)Oc3ccc(cc3Cl)C2O)NC(=O)C(N)c2ccc(O)c(c2)Oc2cc(O)cc4c2)c2ccc(O)c(c2)-c2c(O)cc(O)cc21 (centres unmarked) [Compound 20]	> 300 mg/kg	0.72 mg/kg	8.7	6.1	8.3	0.25 µg/mL (≈ 0.183 µM)	8 µg/mL (≈ 5.85 µM)	0.06 µg/mL (≈ 0.0439 µM)	0.6 µg/mL (≈ 0.439 µM)	0.063 µg/mL (≈ 0.0461 µM)	0.25 µg/mL (≈ 0.183 µM)	0.12 µg/mL (≈ 0.0878 µM)	32 µg/mL (≈ 23.4 µM)	64 µg/mL (≈ 46.8 µM)	–
NC1C(=O)NC2Cc3ccc(c(Cl)c3)Oc3cc4cc(c3O)Oc3ccc(cc3Cl)C(O)C3NC(=O)C(NC(=O)C4NC(=O)C(NC2=O)c2cc(O)cc(c2)Oc2cc1ccc2O)c1ccc(O)c(c1)-c1c(O)cc(O)cc1C(C(=O)NCCN1CCOCC1)NC3=O (centres unmarked) [Compound 21]	> 300 mg/kg	2.2 mg/kg	7.9	5.01	6.8	0.12 µg/mL (≈ 0.0915 µM)	16 µg/mL (≈ 12.2 µM)	0.12 µg/mL (≈ 0.0915 µM)	0.06 µg/mL (≈ 0.0458 µM)	0.016 µg/mL (≈ 0.0122 µM)	0.12 µg/mL (≈ 0.0915 µM)	0.12 µg/mL (≈ 0.0915 µM)	128 µg/mL (≈ 97.6 µM)	64 µg/mL (≈ 48.8 µM)	–
NC1C(=O)NC2Cc3ccc(c(Cl)c3)Oc3cc4cc(c3O)Oc3ccc(cc3Cl)C(O)C3NC(=O)C(NC(=O)C4NC(=O)C(NC2=O)c2cc(O)cc(c2)Oc2cc1ccc2O)c1ccc(O)c(c1)-c1c(O)cc(O)cc1C(C(=O)N1CCOCC1)NC3=O (centres unmarked) [Compound 25]	> 300 mg/kg	1.02 mg/kg	7.8	6.6	–	0.12 µg/mL (≈ 0.0946 µM)	16 µg/mL (≈ 12.6 µM)	0.12 µg/mL (≈ 0.0946 µM)	0.12 µg/mL (≈ 0.0946 µM)	0.016 µg/mL (≈ 0.0126 µM)	0.12 µg/mL (≈ 0.0946 µM)	0.12 µg/mL (≈ 0.0946 µM)	64 µg/mL (≈ 50.5 µM)	64 µg/mL (≈ 50.5 µM)	–
NC1C(=O)NC2Cc3ccc(c(Cl)c3)Oc3cc4cc(c3O)Oc3ccc(cc3Cl)C(O)C3NC(=O)C(NC(=O)C4NC(=O)C(NC2=O)c2cc(O)cc(c2)Oc2cc1ccc2O)c1ccc(O)c(c1)-c1c(O)cc(O)cc1C(C(=O)N1CCN(c2ccccn2)CC1)NC3=O (centres unmarked) [Compound 24]	> 300 mg/kg	0.72 mg/kg	–	5.75	7.4	0.12 µg/mL (≈ 0.0893 µM)	32 µg/mL (≈ 23.8 µM)	0.06 µg/mL (≈ 0.0446 µM)	0.06 µg/mL (≈ 0.0446 µM)	0.063 µg/mL (≈ 0.0469 µM)	0.12 µg/mL (≈ 0.0893 µM)	0.06 µg/mL (≈ 0.0446 µM)	> 128 µg/mL	> 128 µg/mL	6.6
